Results: patent publication US20140038884A1, “ANTIVIRAL PEPTIDES” (priority 2011, published 2014)
Read-outs that look alike come from different tables or passages of the source. Ends that are not written are not given here.

How the values were obtained:
[1] = Isoelectric point (Ip) of the peptides; format: physicochemical
HIV-1 = details: for influence on the expression level of Ag p24: subfragments containing the GGNK sequence
PE/CA PJ15 cells [2] = assay: Cytotoxicity test, Neutral Red Uptake (NRU) method; format: cell-based; details: 50 microM, +24 and +48 hours from administration
Protocol: FIG. 3 (a, b, c). Cytotoxicity tests according to Neutral Red Uptake (NRU) method, performed on the three peptides: 1932 (SEQ ID NO 1), 2733 (SEQ ID NO 2) and 1413 (SEQ ID NO 3), at the two concentrations of 5 and 50 microM at +24 and +48 hours from administration. Therefore, concentrations near (5 microM) to or markedly higher (50 microM) than those employed for carrying out the ex-vivo and in vitro tests were used. Cells used are a tumour cell line denominated PE/CA PJ15. Positive control (denoted in the legends by ctrl+), used at a sublethal concentration of 10 microM, is a commercial proapoptotic peptide, Catalog #62206 (Anaspec-USA).
Treated cells were subjected to MTT assay at +24 and +48 hours from peptide inoculation. […] After a 3-hour incubation at 38° C., formazan crystals were solubilized with HCl solution in isopropanol (0.04 N, 200 μl) and the stained solution was measured by a microplate reader (Packard Spectracount™, Packard BioScience Company, Meriden U.S.A.) with a 570 nm filter. […] In the MTT citotoxicity test at +24 and +48 hours, averages of the values obtained by photometer reading of the data related to tested peptides were compared. […] From a determination of the amount of Neutral Red retained in the cells exposed thereto (in comparison with the control) the relative toxicity of the chemical substances at issue can be assessed. […]

PE/CA PJ15 cells [3] = assay: Cytotoxicity test, MTT method; format: cell-based; details: 15 microM, +48 hours from administration
Protocol: FIG. 4 (a, b, c). Cytotoxicity tests according to the MTT method (see protocols) performed on the three peptides: 1932 (SEQ ID NO 1); 2733 (SEQ ID NO 2) and 1413 (SEQ ID NO 3), and at three concentrations of […] at +24 and +48 hours from administration. There were used concentrations near (5 microM) to, or greater (15, 50 microM) than those used in the ex-vivo and in vitro tests, where average concentration of the three peptides is of about 3.65 microM. Cells used are a tumour cell line denominated PE/CA PJ15. Positive control (denoted in the legends by ctrl+), used at a sublethal concentration of 10 microM, is a commercial proapoptotic peptide, Catalog #62206 (Anaspec-USA).
Treated cells were subjected to MTT assay at +24 and +48 hours from peptide inoculation. […] After a 3-hour incubation at 38° C., formazan crystals were solubilized with HCl solution in isopropanol (0.04 N, 200 μl) and the stained solution was measured by a microplate reader (Packard Spectracount™, Packard BioScience Company, Meriden U.S.A.) with a 570 nm filter. […] In the MTT citotoxicity test at +24 and +48 hours, averages of the values obtained by photometer reading of the data related to tested peptides were compared. […]

HIV strain BaL = assay: In vitro exogenous infection of healthy-donor PBMCs with HIV strain BaL, p24 ELISA; details: at 12 days, 10 microg/ml, regardless of protocol, FIG. 2
HIV = assay: Peptide stability, duration of effect on HIV replication in in vitro assays; format: cell-based
Protocol: Current drugs in use for the therapy against HIV infections and AIDS, like e.g. the HAART mixture, are administered in daily doses, whereas the action of the peptides of SEQ ID NO 1, 2, and 3 in in vitro assays highlights a duration of the effect on HIV replication of at least four days.
The effect was verified in two in vitro experimental protocols envisaging: • a treatment of the cells with the virus (adsorption phase), washing, inoculation of the peptide in culture and analysis of viral replication over time; • exposure of the cells to the peptide, adsorption of the cells to the virus, washing, and analysis of viral replication over time.

HIV strain IIIB = assay: In vitro exogenous infection of healthy-donor PBMCs with HIV strain IIIB, p24 ELISA
HIV-1 R5 = details: ex vivo

Row | Substance | Ip (isoelectric point) [1] | activities A) HIV-1 activation ex vivo, B) inhibitory activity, C) (HIV-1) | also measured
1 | GPPPPGKPQ (listed as Homo sapiens) [Peptide 1e] | 8.75 | do not exhibit any of the activities listed at A), B) and C) | –
2 | APPGARPPPPPPPPADQPQQGP (Sus sp) [Peptide 6] | 5.88 | do not exhibit any of the activities listed at A), B) and C) | –
3 | APPGARPPPGPPPPGPPPPGP (listed as Sus sp.) [Peptide 4] | 9.79 | do not exhibit any of the activities listed at A), B) and C) | –
4 | DKPKKKPPPPAGPPPPPPPPPGPPPPGP [peptide 2733] | – | – | toxicity with respect to the control (NRU) (PE/CA PJ15 cells [2]): slightly more toxic with respect to the control
5 | GPPPQGGN (listed as Homo sapiens) [Peptide 1d] | 5.52 | do not exhibit any of the activities listed at A), B) and C) | –
6 | GPPPQGGNKPQGPPPPGKPQ [peptide 1932] | – | – | toxicity with respect to the control (MTT) (PE/CA PJ15 cells [3]): slightly toxic with respect to the control; toxicity with respect to the control (NRU) (PE/CA PJ15 cells [2]): slightly more toxic with respect to the control
7 | GPPPQGGNKPQ (listed as Homo sapiens) [Peptide 1b] | 8.75 | exhibit none of the activities listed in points A), B) and C) | influence on the expression level of Ag p24 (HIV-1): in no way influences the expression level of Ag p24
8 | APPGARPLPGPPPPGPPPPGP (listed as Sus sp.) [Peptide 7] | 9.79 | do not exhibit any of the activities listed at A), B) and C) | –
9 | GPPPQGGNKPQGPPPPG (listed as Homo sapiens) [Peptide 1a] | 8.75 | exhibit none of the activities listed in points A), B) and C) | influence on the expression level of Ag p24 (HIV-1): in no way influences the expression level of Ag p24
10 | RPPPGPPPPGPPPGP-OH [peptide 1413, RPPPGPPPPGPPPGP] | 9.75 | – | inhibition of viral replication (HIV strain BaL): effective in inhibiting viral replication; duration of the effect on HIV replication (HIV): at least four; inhibitory activity relative to Con1 (HIV-1; versus Con1 of U.S. Pat. No. 5,981,720, no direct comparison): 130 times; inhibition of viral replication (HIV strain IIIB; +8 days of culture, 10 μg/ml): relevant effect of inhibition of viral replication; virus replication over the time considered (p24 antigen) (HIV strain IIIB; peptide 10 microg/ml, FIG. 1): almost equal to zero; persistence of inhibitory effect (HIV strain IIIB; until day 12, FIG. 1): remained unaltered until day 12; p24 values (HIV-1 R5; after 5 days of culture, control cells 76 picograms/ml): 191 picograms/ml; p24 values (HIV-1 R5; day 10, control cells 79 picograms/ml): 67 pg/mL
11 | GPPPQGGNKPQGPPPG (listed as Homo sapiens) [Peptide 1c] | 8.75 | exhibit none of the activities listed in points A), B) and C) | influence on the expression level of Ag p24 (HIV-1): in no way influences the expression level of Ag p24
12 | RSPFFDL (listed as Sus sp.) [Peptide 5] | 5.84 | do not exhibit any of the activities listed at A), B) and C) | –
